Key:
Assay type in all cases: in vivo
[1] = tested on: wild oat (Avena fatua); assay: Test B postemergence; details: 13 to 15 days
Summary of the method: (§1)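 Pre: seeded pots sprayed, chemical in non-phytotoxic solvent/surfactant mix. Post: plants 2–18 cm, 1–4 leaf, same formulation. Greenhouse 13–15 d; visual % control vs untreated, 0–100 scale.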

[2] = tested on: barnyardgrass (Echinochloa crus-galli); assay: Test B postemergence; details: 13 to 15 days
Summary of the method: as §1

[3] = tested on: giant foxtail (Setaria faberii); assay: Test B postemergence; details: 13 to 15 days
Summary of the method: as §1

[4] = tested on: wheat (Triticum aestivum); assay: Test B postemergence; details: 13 to 15 days
Summary of the method: as §1

[5] = tested on: corn (Zea mays); assay: Test B postemergence; details: 13 to 15 days
Summary of the method: as §1

[6] = tested on: Surinam grass (Brachiaria decumbens); assay: Test B postemergence; details: 13 to 15 days
Summary of the method: as §1

[7] = tested on: cocklebur (Xanthium strumarium); assay: Test B postemergence; details: 13 to 15 days
Summary of the method: as §1

[8] = tested on: pigweed (Amaranthus retroflexus); assay: Test B postemergence; details: 13 to 15 days
Summary of the method: as §1

[9] = tested on: crabgrass (Digitaria sanguinalis); assay: Test B postemergence; details: 13 to 15 days
Summary of the method: as §1

[10] = tested on: blackgrass (Alopecurus myosuroides); assay: Test B postemergence; details: 13 to 15 days
Summary of the method: as §1

[11] = tested on: velvetleaf (Abutilon theophrasti); assay: Test B postemergence; details: 13 to 15 days
Summary of the method: as §1

[12] = tested on: morning glory (Ipomoea hederacea); assay: Test B postemergence; details: 13 to 15 days
Summary of the method: as §1

[13] = tested on: lambsquarters (Chenopodium album); assay: Test B postemergence; details: 13 to 15 days
Summary of the method: as §1

[14] = tested on: smallflower flatsedge (Cyperus difformis); assay: Test B flooded paddy test; details: Rate 1000 g/ha, scale of 0 to 100 where 0 is no effect and 100 is complete control, visually evaluated after 13 to 15 days
Summary of the method: (§2)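 2-leaf plants, flooded paddy; greenhouse 13–15 d post-treatment; visual rating vs controls, 0–100 scale (0 = no effect, 100 = complete control); dash = no result.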

[15] = tested on: barnyardgrass (Echinochloa crus-galli); assay: Test B flooded paddy test; details: Rate 1000 g/ha, scale of 0 to 100 where 0 is no effect and 100 is complete control, visually evaluated after 13 to 15 days
Summary of the method: as §2

[16] = tested on: rice (Oryza saliva); assay: Test B flooded paddy test; details: Rate 1000 g/ha, scale of 0 to 100 where 0 is no effect and 100 is complete control, visually evaluated after 13 to 15 days
Summary of the method: as §2

[17] = tested on: duck salad (Heteranthera limosa); assay: Test B flooded paddy test; details: Rate 1000 g/ha, scale of 0 to 100 where 0 is no effect and 100 is complete control, visually evaluated after 13 to 15 days
Summary of the method: as §2

[18] = tested on: barnyardgrass (Echinochloa crus-galli); assay: Test B preemergence
Summary of the method: as §1

[19] = tested on: giant foxtail (Setaria faberii); assay: Test B preemergence
Summary of the method: as §1

[20] = tested on: rice (Oryza saliva); assay: Test B preemergence
Summary of the method: as §1

[21] = tested on: corn (Zea mays); assay: Test B preemergence
Summary of the method: as §1

[22] = tested on: Surinam grass (Brachiaria decumbens); assay: Test B preemergence
Summary of the method: as §1

[23] = tested on: cocklebur (Xanthium strumarium); assay: Test B preemergence
Summary of the method: as §1

[24] = tested on: pigweed (Amaranthus retroflexus); assay: Test B preemergence
Summary of the method: as §1

[25] = tested on: crabgrass (Digitaria sanguinalis); assay: Test B preemergence
Summary of the method: as §1

[26] = tested on: velvetleaf (Abutilon theophrasti); assay: Test B preemergence
Summary of the method: as §1

[27] = tested on: morning glory (Ipomoea hederacea); assay: Test B preemergence
Summary of the method: as §1

[28] = tested on: lambsquarters (Chenopodium album); assay: Test B preemergence
Summary of the method: as §1

[29] = Rate 125 g/ha, scale 0 (no effect) to 100 (complete control)
[30] = Rate 500 g/ha, scale 0 to 100, 0 is no effect, 100 is complete control
[31] = Preemergence, Rate 500 g/ha, scale 0 to 100, 0 no effect, 100 complete control
[32] = preemergence, Rate 125 g/ha, scale of 0 to 100 where 0 is no effect and 100 is complete control, 13 to 15 days

Compound: COc1ccn(C2CCN(c3cccc(C(F)(F)F)c3)C2=O)n1 (stereo not shown) [Compound 60]
- Plant response rating, Wild Oat [1, 29]: 0
- Plant response rating, Wild Oat [1, 30]: 0
- Plant response rating, Barnyardgrass [2, 29]: 0
- Plant response rating, Barnyardgrass [2, 30]: 0
- Plant response rating, Foxtail, Giant [3, 29]: 0
- Plant response rating, Foxtail, Giant [3, 30]: 0
- Plant response rating, Wheat [4, 29]: 0
- Plant response rating, Wheat [4, 30]: 0
- Plant response rating, Corn [5, 29]: 0
- Plant response rating, Corn [5, 30]: 0
- Plant response rating, Surinam grass [6, 29]: 0
- Plant response rating, Surinam grass [6, 30]: 0
- Plant response rating, Cocklebur [7, 29]: 0
- Plant response rating, Cocklebur [7, 30]: 0
- Plant response rating, Pigweed [8, 29]: 0
- Plant response rating, Pigweed [8, 30]: 0
- Plant response rating, Crabgrass [9, 29]: 0
- Plant response rating, Crabgrass [9, 30]: 0
- Plant response rating, Blackgrass [10, 29]: 0
- Plant response rating, Blackgrass [10, 30]: 0
- Plant response rating, Velvetleaf [11, 29]: 0
- Plant response rating, Velvetleaf [11, 30]: 0
- Plant response rating, Morningglory [12, 29]: 0
- Plant response rating, Morningglory [12, 30]: 0
- Plant response rating, Lambsquarters [13, 29]: 0
- Plant response rating, Lambsquarters [13, 30]: 0
- Plant response rating, Flatsedge [14]: 0
- Plant response rating, Barnyardgrass [15]: 0
- Plant response rating, Rice [16]: 0
- Plant response rating, Ducksalad [17]: 50
- Plant response rating, Barnyardgrass [18, 31]: 0
- Plant response rating, Barnyardgrass [18, 32]: 0
- Plant response rating, Foxtail, Giant [19, 31]: 0
- Plant response rating, Foxtail, Giant [19, 32]: 0
- Plant response rating, Rice [20, 31]: 0
- Plant response rating, Rice [20, 32]: 0
- Plant response rating, Corn [21, 31]: 0
- Plant response rating, Corn [21, 32]: 0
- Plant response rating, Surinam grass [22, 31]: 0
- Plant response rating, Surinam grass [22, 32]: 0
- Plant response rating, Cocklebur [23, 31]: 0
- Plant response rating, Cocklebur [23, 32]: 0
- Plant response rating, Pigweed [24, 31]: 100
- Plant response rating, Pigweed [24, 32]: 0
- Plant response rating, Crabgrass [25, 31]: 0
- Plant response rating, Velvetleaf [26, 31]: 0
- Plant response rating, Velvetleaf [26, 32]: 0
- Plant response rating, Morningglory [27, 31]: 0
- Plant response rating, Morningglory [27, 32]: 0
- Plant response rating, Lambsquarters [28, 31]: 0
- Plant response rating, Lambsquarters [28, 32]: 0

Compound: CC(C)(C)c1ccn(C2CCN(c3cccc(OC(=O)C(F)(F)F)c3)C2=O)n1 (stereo not shown) [Compound 94]
- Plant response rating, Wild Oat [1, 30]: 0
- Plant response rating, Barnyardgrass [2, 29]: 0
- Plant response rating, Barnyardgrass [2, 30]: 0
- Plant response rating, Foxtail, Giant [3, 29]: 0
- Plant response rating, Foxtail, Giant [3, 30]: 0
- Plant response rating, Wheat [4, 30]: 0
- Plant response rating, Corn [5, 29]: 0
- Plant response rating, Corn [5, 30]: 0
- Plant response rating, Surinam grass [6, 29]: 0
- Plant response rating, Surinam grass [6, 30]: 0
- Plant response rating, Cocklebur [7, 29]: 0
- Plant response rating, Cocklebur [7, 30]: 0
- Plant response rating, Pigweed [8, 30]: 10
- Plant response rating, Crabgrass [9, 29]: 0
- Plant response rating, Crabgrass [9, 30]: 0
- Plant response rating, Blackgrass [10, 29]: 0
- Plant response rating, Blackgrass [10, 30]: 0
- Plant response rating, Velvetleaf [11, 30]: 0
- Plant response rating, Morningglory [12, 30]: 0
- Plant response rating, Lambsquarters [13, 30]: 20
- Plant response rating, Flatsedge [14]: 0
- Plant response rating, Barnyardgrass [15]: 0
- Plant response rating, Rice [16]: 0
- Plant response rating, Ducksalad [17]: 0
- Plant response rating, Barnyardgrass [18, 31]: 0
- Plant response rating, Barnyardgrass [18, 32]: 0
- Plant response rating, Foxtail, Giant [19, 31]: 0
- Plant response rating, Foxtail, Giant [19, 32]: 0
- Plant response rating, Rice [20, 31]: 20
- Plant response rating, Rice [20, 32]: 0
- Plant response rating, Corn [21, 31]: 0
- Plant response rating, Corn [21, 32]: 0
- Plant response rating, Surinam grass [22, 31]: 0
- Plant response rating, Surinam grass [22, 32]: 0
- Plant response rating, Cocklebur [23, 31]: 0
- Plant response rating, Cocklebur [23, 32]: 0
- Plant response rating, Pigweed [24, 31]: 0
- Plant response rating, Pigweed [24, 32]: 0
- Plant response rating, Crabgrass [25, 31]: 30
- Plant response rating, Crabgrass [25, 32]: 0
- Plant response rating, Velvetleaf [26, 31]: 70
- Plant response rating, Velvetleaf [26, 32]: 0
- Plant response rating, Morningglory [27, 31]: 0
- Plant response rating, Morningglory [27, 32]: 0
- Plant response rating, Lambsquarters [28, 31]: 100
- Plant response rating, Lambsquarters [28, 32]: 0

Source: patent US7138361B2, “Herbicidal heterocycles” (E. I. du Pont de Nemours and Company, priority 2000, dated 2006)
